Test results from US20080279856A1, “Inhibition of Bradykinin Release” (Novo Nordisk Pharmaceuticals, Inc., priority 1999, published 2008).
Positions count from the first letter of the chain named.

Tests used:
[1] = tested on: HBP-induced increase in EC permeability; assay: Inhibition of HBP-induced increase in EC permeability; type: cell-based, human, bovine; settings: aprotinin 100 μg/ml, 30 min pre-incubation; HBP 75 μg/ml; N=6
Excerpt: Alternatively, HBP antagonists may be detected by culturing endothelial cells in the presence of HBP and in the presence and absence of a substance suspected of being an antagonist. In a specific embodiment, the antagonist is a monoclonal antibody that binds to at least one epitope of HBP, preferably human HBP, wherein said epitope binds to prekallikrein-H-kininogen complex and activates release of bradykinin. In a preferred embodiment, the monoclonal antibody is a human monoclonal antibody. In one embodiment, the antibody and HBP are preincubated together before incubating with endothelial cells for about 10 minutes at 37° C. The effect of the substance on the permeability of endothelial cells is determined by measuring transendothelial electrical resistance or determining albumin clearance as described in the Examples, infra. A decrease in permeability would indicate that the substance does act as an HBP antagonist.
For measurement of electrical resistance across the EC monolayer, the filter insert is transferred to a resistance measurement chamber (ENDOHM-12; World Precision Instruments, Sarasota, Fla., USA) modified so as to assure exact positioning of the electrodes in relation to each other and to the filter insert during repeated measurements. The chamber (lower compartment) and the filter insert (upper compartment) are filled with 2 ml and 400 μl culture medium, respectively. […] Direct readings of the electrical resistance are given by an ohmmeter (EVOM; World Precision Instruments, Sarasota, Fla., USA) connected to the electrodes of the resistance chamber. The electrical resistance of individual EC monolayers is obtained by subtracting the resistance of the corresponding naked filter coated with Biomatrix as measured prior to seeding of the endothelial cells.
Evans blue dye-conjugated albumin (EBA) is used as a marker for macromolecular permeability of the EC monolayers. […] In experiments where albumin permeability is analyzed, the culture medium in the upper compartment is exchanged for medium containing EBA. […]

[2] = tested on: bradykinin-induced increase in EC permeability; assay: Inhibition of bradykinin-induced increase in EC permeability; type: cell-based, human, bovine; settings: aprotinin 100 μg/ml; subsequent bradykinin 100 nM
Description: For measurement of electrical resistance across the EC monolayer, the filter insert is transferred to a resistance measurement chamber (ENDOHM-12; World Precision Instruments, Sarasota, Fla., USA) modified so as to assure exact positioning of the electrodes in relation to each other and to the filter insert during repeated measurements. The chamber (lower compartment) and the filter insert (upper compartment) are filled with 2 ml and 400 μl culture medium, respectively. All measurements are made at 37° C. with the equipment placed in a cell culture incubator. Direct readings of the electrical resistance are given by an ohmmeter (EVOM; World Precision Instruments, Sarasota, Fla., USA) connected to the electrodes of the resistance chamber. The electrical resistance of individual EC monolayers is obtained by subtracting the resistance of the corresponding naked filter coated with Biomatrix as measured prior to seeding of the endothelial cells.
Before transferring the filter inserts to the resistance measurement chamber (kept at 37° C.), the medium in the insert and in the chamber is replaced with fresh culture medium (37° C.) supplemented with 10 mM Hepes. HBP (25-100 μg/ml) or PMN secretion product is added either to the upper or the lower compartment and change in transendothelial electrical resistance is measured every minute until a plateau phase is reached, and thereafter at 5-min intervals. In separate experiments, PMNs (2×10^6) preincubated with mAb IB4 (10 μg/ml) are added to the upper compartment (PMN:EC ratio=10:1) and allowed to sediment for 10 min. Activation of the PMNs is induced through antibody crosslinking of leukocytic CD18 by addition of goat anti-mouse IgG F(ab′)2 diluted 1:20. In experiments where albumin permeability across the EC monolayer is studied, the medium in the insert contained EBA. During the experiment, the filter insert is moved at 5-10 min intervals to new wells containing fresh medium. All incubations are made at 37° C. After the experiment, the medium in the lower wells is aspirated and analyzed for EBA content.

[3] = 3H-LPS binding to HBP, scintillation proximity assay; settings: up to 50 mM unlabeled BPTI
Description: The affinity for lipopolysaccharide (3H-LPS) is measured by scintillation proximity assay technology (SPA) as described (Linde, V., Bjørn, S., Kastrup, J. S., and Flodgaard, H., 2000, Biotechniques 28:218-222). All samples are repeated in triplicates.

[4] = molecular target: T1, HBP mutant (G175N) (Homo sapiens, UniProt P20160, G201N); assay: Aprotinin effect on leakage induced by HBP mutant (G175N); type: cell-based; settings: leakage model
T1 sequence (P20160 27-248 G201N): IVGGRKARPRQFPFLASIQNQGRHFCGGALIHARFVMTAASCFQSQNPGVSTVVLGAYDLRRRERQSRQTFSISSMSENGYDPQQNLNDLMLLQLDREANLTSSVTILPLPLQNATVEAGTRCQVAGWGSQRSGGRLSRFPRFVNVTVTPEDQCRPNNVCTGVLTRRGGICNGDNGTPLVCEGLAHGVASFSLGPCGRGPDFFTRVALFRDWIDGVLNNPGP

[5] = molecular target: T2, HBP (Homo sapiens, UniProt P20160); settings: cited from earlier work
T2 sequence (P20160 27-248): T1 sequence (P20160 27-248 G201N) with N175G

[6] = after cardiac operations; cited from earlier work
[7] = tested on: kallikrein-C1-inhibitor and C1-C1-inhibitor complexes; settings: cited from earlier work
[8] = tested on: endothelial cell; settings: hypoxic cold storage in organ preservation solutions; cited from earlier work
[9] = tested on: vascular permeability; settings: cited from earlier work

Substance: aprotinin
- effect on HBP-induced increase in EC permeability [1]: largely prevented
- effect on bradykinin-induced permeability change [2]: but not the permeability change induced by subsequent administration of bradykinin
- competition for 3H-LPS binding to native HBP [3]: no inhibitory effects
- effect of aprotinin on mutant-induced leakage [4]: no inhibitory effect
- Kd [5]: 100 nM
- blood loss [6]: reduces blood loss
- postoperative bleeding time [6]: decreases the elevated postoperative bleeding time
- kallikrein-C1-inhibitor and C1-C1-inhibitor complexes [7]: decrease
- endothelial cell viability [8]: increases endothelial cell viability
- vascular permeability and neutrophil count [9]: decreased this vascular permeability and neutrophil count
